Data on 27 molecules can be found in patent US20230312481A1, “SUBSTITUTED (PHTHALAZIN-1-YLMETHYL)UREAS, SUBSTITUTED N-(PHTHALAZIN-1-YLMETHYL)AMIDES, AND ANALOGUES THEREOF” (priority 2020, published 2023).

The first assay deals with HBV rcDNA in HepDE19 cells. Nature of the assay: HepDE19 assay with bDNA quantitation of HBV rcDNA. The format is cell-based, hepatitis B virus. To be noted: HepDE19 cells, 7 day incubation, rcDNA measured by Quantigene 2.0 bDNA assay; top concentration 25 µM; read-out: DE-19bDNA EC50. Here is the method:
HepDE19 Assay With bDNA Quantitation of HBV rcDNA
HepDE19 (50,000 cells/well) were plated in 96-well collagen-coated tissue-culture treated microtiter plates in DMEM/F12 medium supplemented with 10% fetal bovine serum, 1% penicillin-streptomycin and 1 µg/mL tetracycline and incubated in a humidified incubator at 37° C. and 5% CO2 overnight. Next day, the cells were switched to fresh medium without tetracycline and incubated for 4 hours at 37° C. and 5% CO2. […] The final DMSO concentration in the assay was 0.5%. The plates were incubated for 7 days in a humidified incubator at 37° C. and 5% CO2. Following a 7 day-incubation, the level of rcDNA present in the inhibitor-treated wells was measured using a Quantigene 2.0 bDNA assay kit (Affymetrix, Santa Clara, CA) with HBV specific custom probe set and manufacturers instructions. Concurrently, the effect of compounds on cell viability was assessed using replicate plates, plated at a density of 5,000 cells/well and incubated for 4 days, to determine the ATP content as a measure of cell viability using the cell-titer glo reagent (CTG; Promega Corporation, Madison, WI) as per manufacturer’s instructions.
Representative compounds of the disclosure were tested for their abilities to inhibit formation of relaxed circular DNA (rcDNA) in a HepDE19 assay, as described elsewhere herein.
As a reminder, the EC50 is the concentration needed to bring the measured effect to its halfway point. `CC(C)CN(C(=O)Nc1ccc(F)c(Cl)c1)C(C)c1n[nH]c(=O)c2ccccc12` (single isomer, unassigned) [Compound 6, 3-(3-chloro-4-fluoro-phenyl)-1-isobutyl-1-[1-(4-oxo-3H-phthalazin-1-yl)ethyl]urea]: the EC50 was 1700 nM. For `CC(C)CN(C(=O)Nc1ccc(F)cc1)C(C)c1n[nH]c(=O)c2cc(F)ccc12` (single isomer, unassigned) [Compound 20, 1-(1-(6-fluoro-4-oxo-3,4-dihydrophthalazin-1-yl)ethyl)-3-(4-fluorophenyl)-1-isobutylurea], the EC50 turned out to be 8 nM. In the case of `CC(C)CN(C(=O)Nc1ccc(F)cc1)C(C)c1n[nH]c(=O)c2cc(F)ccc12` (single isomer, unassigned) [Compound 21, 1-(1-(6-fluoro-4-oxo-3,4-dihydrophthalazin-1-yl)ethyl)-3-(4-fluorophenyl)-1-isobutylurea], the EC50 is 2400 nM. Consider `CC(c1n[nH]c(=O)c2cc(F)c(F)cc12)N(C)C(=O)c1cc2sccc2[nH]1` (single isomer, unassigned) [Compound 80, N-(1-(6,7-difluoro-4-oxo-3,4-dihydrophthalazin-1-yl)ethyl)-N-methyl-4H-thieno[3,2-b]pyrrole-5-carboxamide], for which the EC50 worked out at 14100 nM.

As to `CC(c1n[nH]c(=O)c2cc(F)c(F)cc12)N(C)C(=O)c1cc2sccc2[nH]1` (single isomer, unassigned) [Compound 81, N-(1-(6,7-difluoro-4-oxo-3,4-dihydrophthalazin-1-yl)ethyl)-N-methyl-4H-thieno[3,2-b]pyrrole-5-carboxamide], the EC50 worked out at 110 nM. On the same count and under the same terms, the value for `CC(c1n[nH]c(=O)c2cc(F)c(F)cc12)N(C)C(=O)c1ccc2c(c1)CCC2` (single isomer, unassigned) [Compound 82, N-(1-(6,7-difluoro-4-oxo-3,4-dihydrophthalazin-1-yl)ethyl)-N-methyl-2,3-dihydro-1H-indene-5-carboxamide] was 9010 nM; that for `CC(c1n[nH]c(=O)c2cc(F)c(F)cc12)N(C)C(=O)c1ccc2c(c1)CCC2` (single isomer, unassigned) [Compound 83, N-(1-(6,7-difluoro-4-oxo-3,4-dihydrophthalazin-1-yl)ethyl)-N-methyl-2,3-dihydro-1H-indene-5-carboxamide] was 80 nM; that for `CC(c1n[nH]c(=O)c2cc(F)c(F)cc12)N(C)C(=O)c1ccc2scnc2c1` (single isomer, unassigned) [Compound 84, N-(1-(6,7-difluoro-4-oxo-3,4-dihydrophthalazin-1-yl)ethyl)-N-methylbenzo[d]thiazole-5-carboxamide] was over 25000 nM. As to `CC(c1n[nH]c(=O)c2cc(F)c(F)cc12)N(C)C(=O)c1ccc2scnc2c1` (single isomer, unassigned) [Compound 85, N-(1-(6,7-difluoro-4-oxo-3,4-dihydrophthalazin-1-yl)ethyl)-N-methylbenzo[d]thiazole-5-carboxamide], the EC50 was found to be 2220 nM. Take `CC(c1n[nH]c(=O)c2cc(F)c(F)cc12)N(C)C(=O)c1ccc2ncsc2c1` (single isomer, unassigned) [Compound 86, N-(1-(6,7-difluoro-4-oxo-3,4-dihydrophthalazin-l-yl)ethyl)-N-methylbenzo[d]thiazole-6-carboxamide]: the EC50 is at least 25000 nM. As to `CC(c1n[nH]c(=O)c2cc(F)c(F)cc12)N(C)C(=O)c1ccc2ncsc2c1` (single isomer, unassigned) [Compound 87, N-(1-(6,7-difluoro-4-oxo-3,4-dihydrophthalazin-l-yl)ethyl)-N-methylbenzo[d]thiazole-6-carboxamide], the EC50 was found to be 5570 nM. For the molecule `CC(c1n[nH]c(=O)c2cc(F)c(F)cc12)N(C)C(=O)c1ccc2ocnc2c1` (single isomer, unassigned) [Compound 88, N-(1-(6,7-difluoro-4-oxo-3,4-dihydrophthalazin-1-yl)ethyl)-N-methylbenzo[d]oxazole-5-carboxamide], the EC50 was over 25000 nM. In the case of `CC(c1n[nH]c(=O)c2cc(F)c(F)cc12)N(C)C(=O)c1ccc2ocnc2c1` (single isomer, unassigned) [Compound 89, N-(1-(6,7-difluoro-4-oxo-3,4-dihydrophthalazin-1-yl)ethyl)-N-methylbenzo[d]oxazole-5-carboxamide], the EC50 was found to be 2420 nM. Turning to `CC(c1n[nH]c(=O)c2cc(F)c(F)cc12)N(C)C(=O)c1ccc2ncoc2c1` (single isomer, unassigned) [Compound 90, N-(1-(6,7-difluoro-4-oxo-3,4-dihydrophthalazin-1-yl)ethyl)-N-methylbenzo[d]oxazole-6-carboxamide], the EC50 was over 25000 nM. In the case of `CC(c1n[nH]c(=O)c2cc(F)c(F)cc12)N(C)C(=O)c1ccc2ncoc2c1` (single isomer, unassigned) [Compound 91, N-(1-(6,7-difluoro-4-oxo-3,4-dihydrophthalazin-1-yl)ethyl)-N-methylbenzo[d]oxazole-6-carboxamide], the EC50 came out at 3860 nM.

Take `CC(c1n[nH]c(=O)c2cc(F)c(F)cc12)N(C)C(=O)c1cnc(C(F)(F)F)c(Cl)c1` (single isomer, unassigned) [Compound 92, 5-chloro-N-(1-(6,7-difluoro-4-oxo-3,4-dihydrophthalazin-1-yl)ethyl)-N-methyl-6-(trifluoromethyl)nicotinamide]: the EC50 was over 25000 nM. As for `CC(c1n[nH]c(=O)c2cc(F)c(F)cc12)N(C)C(=O)c1cnc(C(F)(F)F)c(Cl)c1` (single isomer, unassigned) [Compound 93, 5-chloro-N-(1-(6,7-difluoro-4-oxo-3,4-dihydrophthalazin-1-yl)ethyl)-N-methyl-6-(trifluoromethyl)nicotinamide], the EC50 was found to be 1660 nM. Regarding `CC(c1n[nH]c(=O)c2cc(F)c(F)cc12)N(C)C(=O)c1cc(F)c(Cl)c(F)c1` (single isomer, unassigned) [Compound 94, 4-chloro-N-(1-(6,7-difluoro-4-oxo-3,4-dihydrophthalazin-1-yl)ethyl)-3,5-difluoro-N-methylbenzamide], the EC50 turned out to be 13300 nM.

Consider `CC(c1n[nH]c(=O)c2cc(F)c(F)cc12)N(C)C(=O)c1cc(F)c(Cl)c(F)c1` (single isomer, unassigned) [Compound 95, 4-chloro-N-(1-(6,7-difluoro-4-oxo-3,4-dihydrophthalazin-1-yl)ethyl)-3,5-difluoro-N-methylbenzamide], for which the EC50 amounted to 80 nM. As for `CC(c1n[nH]c(=O)c2cc(F)c(F)cc12)N(C)C(=O)c1cc2c(C(F)F)cc(F)cc2[nH]1` (single isomer, unassigned) [Compound 96, N-(1-(6,7-difluoro-4-oxo-3,4-dihydrophthalazin-1-yl)ethyl)-4-(difluoromethyl)-6-fluoro-N-methyl-1H-indole-2-carboxamide], the EC50 turned out to be 2520 nM.

As for `CC(c1n[nH]c(=O)c2cc(F)c(F)cc12)N(C)C(=O)c1cc2c(C(F)F)cc(F)cc2[nH]1` (single isomer, unassigned) [Compound 97, N-(1-(6,7-difluoro-4-oxo-3,4-dihydrophthalazin-1-yl)ethyl)-4-(difluoromethyl)-6-fluoro-N-methyl-1H-indole-2-carboxamide], the EC50 came out at 20 nM. With `CC(c1n[nH]c(=O)c2cc(F)c(F)cc12)N(C)C(=O)c1cc2c(C(F)F)cccn2c1` (single isomer, unassigned) [Compound 98, N-(1-(6,7-difluoro-4-oxo-3,4-dihydrophthalazin-1-yl)ethyl)-8-(difluoromethyl)-N-methylindolizine-2-carboxamide], the concentration for a half-maximal effect (EC50) came out at 7440 nM.

For `CC(c1n[nH]c(=O)c2cc(F)c(F)cc12)N(C)C(=O)c1cc2c(C(F)F)cccn2c1` (single isomer, unassigned) [Compound 99, N-(1-(6,7-difluoro-4-oxo-3,4-dihydrophthalazin-1-yl)ethyl)-8-(difluoromethyl)-N-methylindolizine-2-carboxamide], the EC50 stood at 10 nM. In the case of `CC(c1n[nH]c(=O)c2cc(F)c(F)cc12)N(C)C(=O)c1cc(F)c(Br)c(F)c1` (single isomer, unassigned) [Compound 100, 4-bromo-N-(1-(6,7-difluoro-4-oxo-3,4-dihydrophthalazin-1-yl)ethyl)-3,5-difluoro-N-methylbenzamide], the EC50 came to 4690 nM. With `CC(c1n[nH]c(=O)c2cc(F)c(F)cc12)N(C)C(=O)c1cc(F)c(Br)c(F)c1` (single isomer, unassigned) [Compound 101, 4-bromo-N-(1-(6,7-difluoro-4-oxo-3,4-dihydrophthalazin-1-yl)ethyl)-3,5-difluoro-N-methylbenzamide], the EC50 came out at 50 nM.

The assay is the same for the next values; noted with them: Hepatitis B virus, HepDE19, 168 h, read-out: DE-19bDNA EC50.
Regarding `C[C@H](c1n[nH]c(=O)c2cc(F)c(F)cc12)N(C)C(=O)Nc1ccc(F)c(Cl)c1` (single isomer, unassigned) [Compound 32], the EC50 turned out to be 21 nM. For `CC(C)CN(C(=O)Nc1ccccc1)C(C)c1n[nH]c(=O)c2cc(F)c(F)cc12` (single isomer, unassigned) [Compound 39, 1-(1-(6,7-difluoro-4-oxo-3,4-dihydrophthalazin-1-yl)ethyl)-1-isobutyl-3-phenylurea], the EC50 was found to be 3700 nM.
